Measurements from patent publication US20110092484A1, “THERAPEUTIC OR PROPHYLACTIC AGENT FOR CEREBRAL ANEURYSM” (NIPPON CHEMIPHAR CO., LTD., priority 2007, published 2011).
“Also recorded” adds a separate entry of the source.

Experiments:
[1] = tested on: matrix metalloproteases; test: Inhibition of other proteases; type: biochemical
[2] = tested on: CD68-positive cells; test: Macrophage infiltration around aneurysms (CD68-positive cells counted); type: in vivo, rats; settings: 50 mg/kg/day, n=10; control 5.3±1.5; did not differ
Experimental: Three months after aneurysm induction, all rats (n=10) were deeply anesthetized and perfused transcardinally with 4% paraformaldehyde. As a control, age-matched male Sprague-Dawley rats were euthanized as described above. The anterior cerebral artery/olfactory artery (ACA/OA) bifurcation was stripped, embedded and cut into 5 μm sections. After blocking with 5% Donkey serum, primary antibodies were incubated for one hour at room temperature followed by incubation with fluorescence labeled secondary antibodies for one hour at room temperature. The secondary antibodies were FITC-conjugated donkey anti-goat IgG antibody, FITC-conjugated donkey anti-rabbit IgG antibody, Cy3-conjugated donkey anti-mouse IgG antibody, and Cy3-conjugated donkey anti-rabbit IgG antibody. Then the slides were covered with PERMAFLUOR (Immunotec) and excited for fluorescence by illumination through a fluorescence microscope system (Olympus). […]
A total of 18 rats were orally given 50 mg/kg/day of the inhibitor. […] After immunohistochemistry for CD68, the number of CD68-positive cells was counted on each section. Three independent researchers assessed the histopathological changes.

[3] = tested on: experimentally induced cerebral aneurysms; test: Experimentally induced cerebral aneurysm model, histopathology of the ACA/OA bifurcation; type: in vivo, SD (Sprague-Dawley) rats
Experimental: After the induction of pentobarbital anesthesia (50 mg/kg), the left common carotid artery and posterior branches of the bilateral renal arteries were ligated at the same time with 10-0 nylon in 7 week-old male SD (Sprague-Dawley) rats. Animals were fed special food containing 8% sodium chloride and 0.12% β-aminopropionitrile (an inhibitor of lysyl oxidase that catalyzes the cross-linking of collagen and elastin). Blood pressure was measured by tail-cuff method. Animal care and experiments complied with Japanese community standards on the care and use of laboratory animals.
A total of 18 rats were orally given 50 mg/kg/day of the inhibitor. Immediately after aneurysm induction, rats were fed food with (n=18) or without (n=21) 50 mg/kg/day of the inhibitor, and sacrificed after three months. The ACA/OA bifurcation was stripped and observed under a light microscope after Elastica van Gieson staining. Early aneurysmal change refers to a lesion with the discontinuity of the internal elastic lamina without apparent outward bulging of the arterial wall. Advanced aneurysm refers to an obvious outward bulging of the arterial wall with the fragmentation or disappearance of the internal elastic lamina. After immunohistochemistry for CD68, the number of CD68-positive cells was counted on each section. Three independent researchers assessed the histopathological changes.
The values were expressed as means Standard deviation (SD). Statistical analysis was performed by using Student's t-test for a two-group comparison and one-way ANOVA followed by Fisher test for a multiple comparison. The incidence of aneurysmal changes was analyzed by the use of Fisher's exact test. Differences were considered statistically significant at P<0.05.

[4] = molecular target: T1, cathepsin B (Rattus norvegicus, UniProt P00787); test: Cathepsin B activity in aneurysmal walls, azo-coupling method (in situ); type: in vivo; settings: three months after aneurysm induction, treated rats
T1 construct: from tissue; host or cells: frozen sections of rat cerebral aneurysmal wall (Sprague-Dawley rats)
Experimental: In order to examine cathepsin B activity in aneurysmal walls, azo-coupling method (in situ) was performed. Three months after aneurysm induction, rats (n=6 in each group) were euthanized as described above. Five μm frozen sections were incubated for one hour at 37° C. with 3.2 mM Z-arg-arg-4-Methoxy-2-Naphthylamine (Cosmo Bio) in 100 mM potassium phosphate buffer containing 10% polyvinyl alcohol, 10 mM dithiothreitol, 2.7 mM L-Cysteine and 1.3 mM EDTA (Sigma). After then, the slides were placed in 125 mg/ml of N-ethylmaleimide in potassium phosphate buffer following at 55° C. for 5 minutes, followed by incubation with Fast Blue Solution (Fast Blue 21 mg/100 ml of potassium phosphate solution, Sigma) for thirty minutes and 0.1M cupric sulfate solution for 15 minutes at room temperature. After washing with physiological saline, the slides were covered with PERMAFLUOR (Immunotec).

[5] = tested on: collagenase IV; test: Collagenase activity in lysate of the whole Willis ring, type IV collagen; type: in vivo; settings: treated rats n=5, P=0.044
Experimental: (§1) One hundred fifty […] of protein was used in one experiment (n=5 in each group). Collagenase activity was measured using Collagenase Activity Measurement Kit (Life Laboratory). Briefly, fluorescence labeled type I or IV collagen was incubated with the lysate of the whole Willis ring for one hour at 37° C. Undigested fluorescence labeled collagen was extracted in ethanol solution and measured by fluorospectrometer with excitation 496 nm and measurement 520 nm. Collgenase activity (U/ml) was calculated by the fluorescence intensity according to the formula given in the manufacture's direction.

[6] = tested on: collagenase I; test: Collagenase activity in lysate of the whole Willis ring, type I collagen; type: in vivo; settings: treated rats n=5, P=0.014
Experimental: as §1

[7] = Serum concentration of the inhibitor in treated rats; type: in vivo; settings: 50 mg/kg/day orally in food
[8] = molecular target: cathepsin B (Homo sapiens, UniProt P07858); test: Inhibition of cathepsin B (IC50); type: biochemical; settings: read-out: IC 50 for cathepsin B
[9] = molecular target: cathepsin S (Homo sapiens, UniProt P25774); test: Inhibition of cathepsin S (IC50); type: biochemical; settings: read-out: IC 50 for cathepsin S
Sequence of cathepsin S (P25774 115-331, species assumed): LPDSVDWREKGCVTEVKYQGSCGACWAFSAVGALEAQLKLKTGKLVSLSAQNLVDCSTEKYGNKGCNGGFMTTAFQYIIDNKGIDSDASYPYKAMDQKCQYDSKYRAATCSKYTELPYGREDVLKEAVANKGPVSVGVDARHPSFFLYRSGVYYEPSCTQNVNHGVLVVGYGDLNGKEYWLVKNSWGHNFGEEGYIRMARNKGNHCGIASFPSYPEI

T1 sequence (P00787 80-333): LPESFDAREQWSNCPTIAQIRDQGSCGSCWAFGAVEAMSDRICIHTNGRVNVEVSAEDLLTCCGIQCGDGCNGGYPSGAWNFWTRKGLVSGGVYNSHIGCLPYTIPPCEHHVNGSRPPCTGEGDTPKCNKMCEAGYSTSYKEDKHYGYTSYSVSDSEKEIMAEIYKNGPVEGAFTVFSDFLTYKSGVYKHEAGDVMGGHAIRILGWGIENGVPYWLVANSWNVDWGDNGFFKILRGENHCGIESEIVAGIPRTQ

CC(C)COC[C@H](CC(C)C)NC(=O)[C@H]1O[C@@H]1C(=O)O [cysteine protease inhibitor, monosodium (2S,3S)-3-[[(1S)-1-isobutoxymethyl-3-methylbutyl]carbamoyl]-oxirane-2-carboxylate]
Inhibition of other proteases such as matrix metalloproteases [1]: did not inhibit | Macrophage infiltration per 50 μm×50 μm field around aneurysms [2]: 4.9±1.7 cells/field | Rats that developed advanced aneurysms ([3]; 50 mg/kg/day in food, three months after aneurysm induction, control 19 of 21): 5 of 10 | Rats that showed early aneurysmal changes ([3]; 50 mg/kg/day in food, three months after aneurysm induction, of 10 rats, control 2 of 21): 4 rats | Incidence of all aneurysmal changes versus control group ([3]; 50 mg/kg/day, three months): not different | Rate (incidence) of advanced aneurysms versus control group ([3]; 50 mg/kg/day, three months, P=0.022): significantly lower; also recorded: dramatically reduced | Cathepsin B activity at the aneurysmal walls versus untreated aneurysm rats [4]: reduced | Collagenase IV activity versus control group [5]: significantly lower | Collagenase I activity versus control group [6]: significantly lower | Serum concentration [7]: 628.5 ± 22.3 nM | IC50 [8]: 284 nM | IC50 [9]: 186 nM
